This is an account of results in patent US9695152B2, “3,4-dihydro-2H-isoquinoline-1-one and 2,3-dihydro-isoindol-1-one compounds” (Hoffmann-La Roche Inc., priority 2013, dated 2017).

The target in assay [1] is T1, CYP11B2 (Homo sapiens (Human), UniProt P19099). The assay is described as follows: G-402 cellular enzyme assay, human CYP11B2 (aldosterone release, HTRF). The assay is classed as cell-based. The conditions noted are these: G-402 cells expressing human CYP11B2, 1 μM Deoxycorticosterone. The text has this:
(§1) Herein we identified the use of the G-402 cell line as a host cell to ectopically express (transiently or stably) enzymes of the CYP11 family. Specifically we developed stable G-402 cells expressing ectopically human CYP11B1, human CYP11B2, human CYP11A1, cynmolgus CYP11B1 or cynomolgus CYP11B2 enzyme activity. Importantly the identified cell line G-402 expresses co-factors (adrenodoxin and adrenodoxin reductase) important for the activity of the CYP11 family and no relevant enzyme activity of the CYP11 family (in comparison to H295R cells) was detected in these cells. Therefore the G-402 cell line is uniquely suited as a host cell for the ectopic expression of enzymes from the CYP11 family.
(§2) G-402 cells can be obtained from ATCC (CRL-1440) and were originally derived from a renal leiomyoblastoma.
(§3) The expression plasmids contains the ORF for either human/cyno CYP11B1 or CYP11B2 under the control of a suitable promoter (CMV-promoter) and a suitable resistance marker (neomycin). Using standard techniques the expression plasmid is transfected into G-402 cells and these cells are then selected for expressing the given resistance markers. Individual cell-clones are then selected and assessed for displaying the desired enzymatic activity using 11-Deoxycorticosterone (Cyp11B2) or 11-Deoxycortisol (Cyp11B1) as a substrate.
(§4) G-402 cells expressing CYP11 constructs were established as described above and maintained in McCoy's 5a Medium Modified, ATCC Catalog No. 30-2007 containing 10% FCS and 400 μg/ml G418 (Geneticin) at 37° C. under an atmosphere of 5% CO2/95% air. Cellular enzyme assays were performed in DMEM/F12 medium containing 2.5% charcoal treated FCS and appropriate concentration of substrate (0.3-10 uM 11-Deoxycorticosterone, 11-Deoxycortisol or Corticosterone). For assaying enzymatic activity, cells were plated onto 96 well plates and incubated for 16 h. An aliquot of the supernatant is then transferred and analyzed for the concentration of the expected product (Aldosterone for CYP11B2; Cortisol for CYP11B1). The concentrations of these steroids can be determined using HTRF assays from CisBio analyzing either Aldosterone or Cortisol.
(§5) Inhibition of the release of produced steroids can be used as a measure of the respective enzyme inhibition by test compounds added during the cellular enzyme assay. The dose dependent inhibition of enzymatic activity by a compound is calculated by means of plotting added inhibitor concentrations (x-axes) vs. measured steroid/product level (y-axes). The inhibition is then calculated by fitting the following 4-parameter sigmoidal function (Morgan-Mercer-Flodin (MMF) model) to the raw data points using the least squares method:
(§6) [formula] wherein, A is the maximum y value, B is the EC50 factor determined using XLFit, C is the minimum y value and D is the slope value.
(§7) EC50 values for compounds claimed herein were tested with the G402-based assay system described. Cyp11B2 enzyme activity was tested in presence of 1 μM Deoxycorticosterone and variable amounts of inhibitors; Cyp11B1 enzyme activity was tested in presence of 1 μM Deoxycortisol and variable amounts of inhibitors.

For assay [2], the target named is human CYP11B1 (Homo sapiens (Human), UniProt P15538). The assay is described as follows: G-402 cellular enzyme assay, human CYP11B1 (cortisol release, HTRF). The following applies: G-402 cells expressing human CYP11B1, 1 μM Deoxycortisol. It is filed as cell-based.
From the text: as §1, §2, §3, §4, §5, §6, §7

For assay [3] the following is noted: rat, cited from earlier work; for plasma aldosterone: 4 weeks (FAD286), 4 and 8 weeks (spironolactone) of treatment.
For assay [4] the following is noted: rats with experimental heart failure; cited from earlier work.
Assay [5] deals with T1, CYP11B2. The conditions noted are these: patients with primary aldosteronism, cited from earlier work.

Usually EC50 stands for the concentration that produces a half-maximal response. Low values mean an effect from little substance, high ones a need for much substance.

human CYP11B1, sequence (P15538 25-503): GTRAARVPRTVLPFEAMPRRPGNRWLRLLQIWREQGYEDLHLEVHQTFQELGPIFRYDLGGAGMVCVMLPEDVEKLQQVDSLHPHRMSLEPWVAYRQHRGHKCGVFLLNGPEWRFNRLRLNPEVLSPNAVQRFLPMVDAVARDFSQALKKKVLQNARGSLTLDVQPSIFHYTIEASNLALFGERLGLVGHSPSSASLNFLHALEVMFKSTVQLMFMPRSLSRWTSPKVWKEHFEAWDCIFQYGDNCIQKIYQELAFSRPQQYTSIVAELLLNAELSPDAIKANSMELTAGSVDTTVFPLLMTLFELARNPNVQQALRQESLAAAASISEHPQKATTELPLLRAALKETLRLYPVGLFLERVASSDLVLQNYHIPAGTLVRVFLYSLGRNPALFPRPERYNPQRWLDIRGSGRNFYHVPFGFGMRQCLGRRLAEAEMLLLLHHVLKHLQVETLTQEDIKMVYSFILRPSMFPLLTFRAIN
T1 sequence (P19099 25-503): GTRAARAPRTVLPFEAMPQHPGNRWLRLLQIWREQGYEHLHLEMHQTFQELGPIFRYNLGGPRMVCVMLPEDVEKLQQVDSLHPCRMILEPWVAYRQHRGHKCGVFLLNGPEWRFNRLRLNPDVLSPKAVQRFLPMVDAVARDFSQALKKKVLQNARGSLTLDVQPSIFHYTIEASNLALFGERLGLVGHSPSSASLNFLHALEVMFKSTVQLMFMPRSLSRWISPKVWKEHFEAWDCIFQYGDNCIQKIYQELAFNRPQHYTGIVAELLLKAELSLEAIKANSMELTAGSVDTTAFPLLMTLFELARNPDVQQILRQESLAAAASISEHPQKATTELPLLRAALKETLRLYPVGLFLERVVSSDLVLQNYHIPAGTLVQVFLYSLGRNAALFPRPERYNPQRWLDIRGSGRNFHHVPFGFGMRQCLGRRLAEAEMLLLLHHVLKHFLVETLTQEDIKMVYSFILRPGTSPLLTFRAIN

Take `O=C(c1ncccc1Cl)N1CC(Nc2cncc(N3CCc4cc(Cl)ccc4C3=O)c2)C1` [Example 17, 6-Chloro-2-[5-[[1-(3-chloropyridine-2-carbonyl)azetidin-3-yl]amino]pyridin-3-yl]-3,4-dihydroisoquinolin-1-one]: the EC50 in assay [1] worked out at 145 nM; in assay [2], 1910 nM.
Regarding `Cc1cncc(C(=O)N2CC(Nc3cncc(N4CCc5cc(Cl)ccc5C4=O)c3)C2)c1` [Example 18, 6-Chloro-2-[5-[[1-(5-methylpyridine-3-carbonyl)azetidin-3-yl]amino]pyridin-3-yl]-3,4-dihydroisoquinolin-1-one], the EC50 in assay [1] is 9 nM; in assay [2] it was 1290 nM.
In the case of `Cc1ccncc1C(=O)N1CC2(CC(Nc3cncc(N4C(=O)c5ccc(Cl)cc5C4(C)C)c3)C2)C1` [Example 19, 5-Chloro-3,3-dimethyl-2-[5-[[2-(4-methylpyridine-3-carbonyl)-2-azaspiro[3.3]heptan-6-yl]amino]pyridin-3-yl]isoindol-1-one], the half-maximal effective concentration (EC50) came to 86 nM in assay [1] and 10900 nM in assay [2].
For `Cc1noc(C)c1C(=O)N1CC(Nc2cncc(N3CCc4cc(Cl)ccc4C3=O)c2)C1` [Example 20, 6-Chloro-2-[5-[[1-(3,5-dimethylisoxazole-4-carbonyl)azetidin-3-yl]amino]-3-pyridyl]-3,4-dihydroisoquinolin-1-one] the same measures were 55 nM and 3880 nM.
As to `Cn1cc(C(=O)N2CC(Nc3cncc(N4CCc5cc(Cl)ccc5C4=O)c3)C2)cn1` [Example 21, 6-Chloro-2-[5-[[1-(1-methylpyrazole-4-carbonyl)azetidin-3-yl]amino]-3-pyridyl]-3,4-dihydroisoquinolin-1-one], the 50% effective concentration (EC50) in assay [1] is 7 nM; in assay [2] it was 16900 nM.
Turning to `Cn1ccnc1C(=O)N1CC(Nc2cncc(N3CCc4cc(Cl)ccc4C3=O)c2)C1` [Example 22, 6-Chloro-2-[5-[[1-(1-methylimidazole-2-carbonyl)azetidin-3-yl]amino]-3-pyridyl]-3,4-dihydroisoquinolin-1-one], the results for the EC50 in assay [1] and in assay [2] were 23 nM and 2090 nM, respectively.
Consider `Cc1noc(C)c1C(=O)N1CC(Nc2cncc(N3C(=O)c4ccc(Cl)cc4C3(C)C)c2)C1` [Example 23, 5-Chloro-2-[5-[[1-(3,5-dimethylisoxazole-4-carbonyl)azetidin-3-yl]amino]-3-pyridyl]-3,3-dimethyl-isoindolin-1-one], for which the concentration for a half-maximal effect (EC50) came out at 30 nM in assay [1] and 5950 nM in assay [2].
For `Cn1cc(C(=O)N2CC(Nc3cncc(N4C(=O)c5ccc(Cl)cc5C4(C)C)c3)C2)cn1` [Example 24, 5-Chloro-3,3-dimethyl-2-[5-[[1-(1-methylpyrazole-4-carbonyl)azetidin-3-yl]amino]-3-pyridyl]isoindolin-1-one] the same measures were 1 nM and 6020 nM.
Regarding `CC1(C)c2cc(C#N)ccc2C(=O)N1c1cncc(NC2CN(S(=O)(=O)C3CC3)C2)c1` [Example 31, 2-[5-[(1-Cyclopropylsulfonylazetidin-3-yl)amino]-3-pyridyl]-3,3-dimethyl-1-oxo-isoindoline-5-carbonitrile], the EC50 was 12 nM in assay [1] and 7000 nM in assay [2].
Consider `Cc1ccncc1C(=O)N1CC(Nc2cncc(N3C(=O)c4ccc(C#N)cc4C3(C)C)c2)C1` [Example 32, 3,3-Dimethyl-2-[5-[[1-(4-methylpyridine-3-carbonyl)azetidin-3-yl]amino]-3-pyridyl]-1-oxo-isoindoline-5-carbonitrile], for which the EC50 in assay [1] was 27 nM; in assay [2], 6140 nM.
Consider `Cn1cc(C(=O)N2CC(Nc3cncc(N4C(=O)c5ccc(C#N)cc5C4(C)C)c3)C2)cn1` [Example 33], for which the EC50 in assay [1] was 31 nM; in assay [2], 29500 nM.
For the molecule `Cn1ccnc1C(=O)N1CC(Nc2cncc(N3C(=O)c4ccc(C#N)cc4C3(C)C)c2)C1` [Example 34, 3,3-Dimethyl-2[5-[[1-(1-methylimidazole-2-carbonyl)azetidin-3-yl]amino]-3-pyridyl]-1-oxo-isoindoline-5-carbonitrile], the EC50 in assay [1] worked out at 5 nM; in assay [2], 586 nM.
Turning to `CC1(C)c2cc(C#N)ccc2C(=O)N1c1cncc(NC2CCN(S(=O)(=O)C3CC3)CC2)c1` [Example 35, 2-[5-[(1-Cyclopropylsulfonyl-4-piperidyl)amino]-3-pyridyl]-3,3-dimethyl-1-oxo-isoindoline-5-carbonitrile], the EC50 in assay [1] turned out to be 24 nM; in assay [2], 13300 nM.
On to `CC1(C)c2cc(C#N)ccc2C(=O)N1c1cncc(NC2CCN(C(=O)c3ncccc3Cl)CC2)c1` [Example 36, 2-[5-[[1-(3-Chloropyridine-2-carbonyl)-4-piperidyl]amino]-3-pyridyl]-3,3-dimethyl-1-oxo-isoindoline-5-carbonitrile], for which the EC50 turned out to be 22 nM in assay [1] and 1400 nM in assay [2].
Regarding `Cc1ccncc1C(=O)N1CCC(Nc2cncc(N3C(=O)c4ccc(C#N)cc4C3(C)C)c2)CC1` [Example 37, 3,3-Dimethyl-2[5-[[1-(4-methylpyridine-3-carbonyl)-4-piperidyl]amino]-3-pyridyl]-1-oxo-isoindoline-5-carbonitrile], the EC50 in assay [1] amounted to 70 nM; in assay [2], 10500 nM.
Turning to `CC1(C)c2cc(C#N)ccc2C(=O)N1c1cncc(NC2CN(C(=O)c3ncccc3Cl)C2)c1` [Example 38, 2-[5-[[1-(3-Chloropyridine-2-carbonyl)azetidin-3-yl]amino]-3-pyridyl]-3,3-dimethyl-1-oxo-isoindoline-5-carbonitrile], the values for the EC50 in assay [1] and in assay [2] were 31 nM and 1200 nM, respectively.
As for `Cn1cncc1C(=O)N1CC(Nc2cncc(N3C(=O)c4ccc(C#N)cc4C3(C)C)c2)C1` [Example 39, 3,3-Dimethyl-2-[5-[[1-(3-methylimidazole-4-carbonyl)azetidin-3-yl]amino]-3-pyridyl]-1-oxo-isoindoline-5-carbonitrile], the EC50 turned out to be 25 nM in assay [1] and 13900 nM in assay [2].
Turning to `Cn1cc(C(=O)N2CCC(Nc3cncc(N4C(=O)c5ccc(C#N)cc5C4(C)C)c3)CC2)cn1` [Example 40, 3,3-Dimethyl-2-[5-[[1-(1-methylpyrazole-4-carbonyl)-4-piperidyl]amino]-3-pyridyl]-1-oxo-isoindoline-5-carbonitrile], the results for the EC50 in assay [1] and in assay [2] were 52 nM and 9570 nM, respectively.
Turning to `Cn1ccnc1C(=O)N1CCC(Nc2cncc(N3C(=O)c4ccc(C#N)cc4C3(C)C)c2)CC1` [Example 41, 3,3-Dimethyl-2-[5-[[1-(1-methylimidazole-2-carbonyl)-4-piperidyl]amino]-3-pyridyl]-1-oxo-isoindoline-5-carbonitrile], the EC50 stood at 17 nM in assay [1] and 190 nM in assay [2].
For `Cn1cncc1C(=O)N1CCC(Nc2cncc(N3C(=O)c4ccc(C#N)cc4C3(C)C)c2)CC1` [Example 42, 3,3-Dimethyl-2-[5-[[1-(3-methylimidazole-4-carbonyl)-4-piperidyl]amino]-3-pyridyl]-1-oxo-isoindoline-5-carbonitrile] the same measures were 56 nM and 10600 nM.
Take `N#Cc1ccc([C@H]2CCCc3cncn32)cc1` [FAD286]: in assay [3], the plasma aldosterone result is “reduced”; the “angiotensin II and salt-stimulated PAI-1 mRNA expression in the aorta and the heart” value was “not”. In addition, in assay [4], the “blood pressure and cardiovascular function and structure” value was “improved”.
With `N#Cc1ccc([C@H]2CCc3cncn32)c(F)c1` [LCI699], in assay [5] (oral), the circulating aldosterone levels entry is reported as “significantly lower”. In assay [5], the blood pressure result is on record as “mildly decreased” and the hypokalemia entry was “corrected”.
As to `CC(=O)S[C@@H]1CC2=CC(=O)CC[C@]2(C)[C@H]2CC[C@@]3(C)[C@@H](CC[C@@]34CCC(=O)O4)[C@H]12` [spironolactone], in assay [3], the plasma aldosterone result is given as “increased”; the “angiotensin II and salt-stimulated PAI-1 mRNA expression in the aorta and the heart” value is “enhanced”.
